Test results reported in PubChem BioAssay AID179 (DTP/NCI, 2004).
Active and inactive are the calls of the source.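 The calls were made as follows: active = compounds giving half or more protection of infected cells from virus-caused growth loss, again on retest; inactive = the rest.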

System: CEM cells HIV-1 protection, formazan growth assay
Assay: NCI AIDS Antiviral Assay
Settings: for IC50: measured here: growth of uninfected CEM cells
Method in brief: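 Screen of anti-HIV-1 activity in human CEM cells using a formazan-based growth measurement at five drug concentrations. Hits with 50% or greater protection were repeated, and confirmation required reproducible complete protection.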

SMILES | EC50 [µM] | IC50 [µM] | outcome
COC(C)(C)[C@@H]1CCCN1C1=C(C)C(=O)OC1 | > 200 | > 200 | –
COc1ccc(C2N(c3ccc(C)c(N=C=O)c3)C(=O)N3C(c4ccc(OC)cc4)N(c4ccc(C)c(N=C=O)c4)C(=O)N23)cc1 (stereo not given) | > 200 | 12.6 | –
COC(=O)C1(C)NCCc2c1[nH]c1ccccc21 (stereo not given) | > 331 | > 331 | –
COc1cc(C(=O)[O][Sn]([c]2ccccc2)([c]2ccccc2)[c]2ccccc2)cc(OC)c1OC | > 200 | 0.0631 | –
CC(C)(C)OC(=O)c1cc(NC(=S)c2ccccc2)ccc1Cl | 0.363 | 19.1 | –
O=S1OC[C@H](CCCl)O1 (stereo not given in full) | > 200 | > 200 | –
CC(=O)OCc1cc(=O)n2c([nH]c3ccccc32)c1C#N | > 20 | > 20 | –
CCN(CC)CCN1CC(=O)N2CCCCN2C(=O)C1 | > 200 | > 200 | –
CCO[C@H]1OC(=O)[C@@H]2C(c3ccc([N+](=O)[O-])cc3)=NO[C@H]12 | > 46.8 | > 46.8 | –
Cc1c(N=Nc2ccc(Br)cc2)c(=O)n(-c2ccccc2)c(=S)n1-c1nc2ccccc2s1 | > 83.2 | 19.5 | –
COC(=O)C1CC2C=CC1N(C(=O)OCc1ccccc1)C2 (stereo not given) | > 200 | 170 | –
Oc1ccccc1-c1n[nH]c(-c2ccccc2O)n1 | > 200 | 1.38 | –
CC(CC(C)[C@H]1CCC2[C@H]3C(CC(=O)[C@@]21C)[C@@]1(C)CCC(O)C[C@H]1C[C@@H]3O)C(=O)O (stereo not given in full) | > 200 | 162 | –
COc1cc(OC)cc(OCc2ccc3nc(-c4ccccc4)c(Cl)nc3c2)c1 | > 100 | > 100 | –
CN(C)c1ccc(C(c2cc3c(cc2O)OCO3)N2CCOCC2)cc1 (stereo not given) | > 72.4 | 12.9 | –
O=C1c2ccccc2CC1C1(O)C(=O)Nc2c(Cl)cc(Cl)cc21 (stereo not given) | > 102 | > 102 | –
N#CCCN(c1ccc(-c2nnc(NC(=O)CNNC(=O)CC(=O)Nc3ccccc3)s2)cc1)S(=O)(=O)c1ccccc1 | > 41.7 | > 41.7 | –

SMILES | EC50 [µM] | IC50 [µM] | outcome
COC(=O)/C=C/c1cc(OC)c(OC)c(OC)c1 | > 251 | 170 | –
Cc1c2n(c3ccccc13)CC1C2N(C)OC1(C)C (stereo not given) | > 263 | > 263 | –
COC(=O)C1Cc2cc3c(cc2C1)CCC3 | > 200 | > 200 | –
CC1=NC(C)(COC(=O)C2(C)NC(C)(CO)CO2)COC1=O (stereo not given) | > 200 | > 200 | –
CCOP(=O)(OCC)/C(C#N)=C\c1ccc(OC(C)=O)cc1 | > 562 | > 562 | –
CC1=C(C(=O)Nc2cc(F)c(F)cc2F)C(c2ccc(N(C)C)cc2)C(C(=O)Nc2cc(F)c(F)cc2F)=C(C)N1 | > 23.4 | > 23.4 | –
CCCCCCCCCCCCCCCCNC(=O)/C(=C\c1ccc(Cl)c(Cl)c1)NC(=O)c1ccccc1 | > 100 | 20 | –
CC(C)S(=O)(=O)c1s[nH]c(=O)c1-c1ccccc1 | > 178 | > 178 | –
CCO[C@@H]1OC(=O)[C@H]2C(c3ccccc3)=NO[C@@H]12 | > 275 | > 275 | –
CNCC(=O)NC(CO)C(=O)NC1C(C(N)=O)OC(n2ccc(N)nc2=O)C(O)C1O (stereo not given) | – | – | inactive
CCN(CC)CCOC(=O)c1cc2cc3cc(C(=O)OCCN(CC)CC)c(=O)oc3c(C)c2oc1=O | > 200 | > 200 | –
CC1(Cn2ccc(=O)[nH]c2=O)CC(C2(C)OCCO2)C(=O)O1 (stereo not given) | > 813 | > 813 | –
O=C(NCCNCCCNC(=O)c1cc(-c2ccccc2)nc2ccccc12)c1cccc(O)c1O | > 200 | 3.24 | –
N=C1N(c2ccccc2)C(N)(N)SSC(N)(N)N1c1ccccc1 | > 141 | 17.4 | –
C[C@@H](CCO)OC1OC(COC(=O)C(C)(C)C)C(OC(=O)C(C)(C)C)C(OC(=O)C(C)(C)C)C1OC(=O)C(C)(C)C (stereo not given in full) | > 200 | 12 | –
CCOC(=O)Nc1cc2c(c(N)n1)N=C(CN(C)c1ccccc1)CN2 | > 34.7 | 0.0741 | –
